This assay deals with P388 leukemia ip, CD2F1 mice, survival T/C. The assay is described as follows: NCI In Vivo Anticancer Drug Screen. Data for tumor model P388 Leukemia (intraperitoneal) in CD2F1 (CDF1) mice. The settings on record: endpoint: median survival time, higher = longer survival. The procedure:
The antitumor activity of compounds was measured in mice bearing transplantable tumors. Survival or tumor size were measured and the results are expressed as the measurement made in the treated group (T) divided by the measurement made in the vehicle treated control group (C). The tumor model used in this assay is P388 Leukemia (intraperitoneal) in CD2F1 (CDF1) mice

Setting [1] is: dose: 50.0 mg/kg/injection, schedule: Q01DX009 (ip), vehicle: saline with Tween-80.
The mark [2] stands for this setting: dose: 100.0 mg/kg/injection, schedule: Q01DX009 (ip), vehicle: saline with Tween-80.
Setting [3] is: dose: 50.0 mg/kg/injection, schedule: Q01DX005 (ip), vehicle: Klucel (hydroxypropylcellulose) (HPC).
Setting [4] is: dose: 100.0 mg/kg/injection, schedule: Q01DX005 (ip), vehicle: Klucel (hydroxypropylcellulose) (HPC).
Setting [5] is: dose: 200.0 mg/kg/injection, schedule: Q01DX005 (ip), vehicle: Klucel (hydroxypropylcellulose) (HPC).
The mark [6] stands for this setting: dose: 50.0 mg/kg/injection, schedule: Q01DX005 (ip), vehicle: saline with Tween-80.
[7] abbreviates: dose: 100.0 mg/kg/injection, schedule: Q01DX005 (ip), vehicle: saline with Tween-80.
[8] abbreviates: dose: 200.0 mg/kg/injection, schedule: Q01DX005 (ip), vehicle: saline with Tween-80.

Drawing on PubChem BioAssay AID330 (DTP/NCI, 2004), this text covers T/C for 21 compounds.

Where “and” joins values, the source holds several entries; their conditions need not be identical. Equal entries are not always repeated. Toxic doses and inconclusive results are not listed.

For the compound `CCC(=O)N(C)C(C)C(=O)OC1CC(=O)N(C)c2cc(cc(OC)c2Cl)CC2(C)OC2/C=C/C(OC)C2(O)CC(OC(=O)N2)C(C)C2OC12C` (stereo not drawn), the T/C is, setting by setting: (dose: 25.0 micrograms/kg/injection, schedule: Q01DX009 (ip), vehicle: saline + alcohol) 124 % of control; (dose: 50.0 micrograms/kg/injection, schedule: Q01DX009 (ip), vehicle: saline + alcohol) 120 % of control and 124 % of control; (dose: 100.0 micrograms/kg/injection, schedule: Q01DX009 (ip), vehicle: saline + alcohol) 124 % of control; (dose: 800.0 micrograms/kg/injection, schedule: Q01DX009 (ip), vehicle: saline + alcohol) 152 % of control.
As for `CC1=C/C(=C(\c2ccccc2)c2cc(C)c(O)c(CNCC(=O)O)c2)C=C(CNCC(=O)O)C1=O`, the T/C (dose: 60.0 mg/kg/injection, schedule: Q01DX005 (ip), vehicle: saline) was 95 % of control; the T/C (dose: 120.0 mg/kg/injection, schedule: Q01DX005 (ip), vehicle: saline) was 103 % of control; the T/C (dose: 240.0 mg/kg/injection, schedule: Q01DX005 (ip), vehicle: saline) is 108 % of control.
Turning to `COCCCNC1=C(C#N)C(=O)NC(c2cccs2)S1` (stereo not drawn), the T/C runs as follows: under setting [1], 117 % of control; under setting [2], 119 % of control.
Consider `COc1ccc2c(c1)N(S(=O)(=O)c1ccc(C)cc1)C/C(=C\N1CCN(C)CC1)C2=O`, for which the T/C was 97 % of control under setting [3], 108 % of control under setting [4] and 101 % of control under setting [5].
Take `O=NNc1ccc(F)cn1`: the T/C was 117 % of control (dose: 3.12 mg/kg/injection, schedule: Q01DX009 (ip), vehicle: water); 153 % of control (dose: 12.5 mg/kg/injection, schedule: Q01DX009 (ip), vehicle: water); 162 % of control and 166 % of control (dose: 25.0 mg/kg/injection, schedule: Q01DX009 (ip), vehicle: water); 99 % of control (dose: 50.0 mg/kg/injection, schedule: Q01DX009 (ip), vehicle: water).
Turning to `CC(=O)OC1C(OC(C)=O)C2C(C)CC3OC(=O)C(C)C3CC2(C)C1OC(C)=O` (stereo not drawn), the T/C reads like this: (dose: 6.25 mg/kg/injection, schedule: Q01DX009 (ip), vehicle: saline) 110 % of control; (dose: 12.5 mg/kg/injection, schedule: Q01DX009 (ip), vehicle: saline) 103 % of control; (dose: 25.0 mg/kg/injection, schedule: Q01DX009 (ip), vehicle: saline with Tween-80) 100 % of control (2×) and 123 % of control; (dose: 25.0 mg/kg/injection, schedule: Q01DX009 (ip), vehicle: saline) 113 % of control; under setting [1], 100 % of control and 121 % of control and 97 % of control; under setting [2], 103 % of control and 104 % of control and 93 % of control. Moreover, the T/C runs as follows: (dose: 200.0 mg/kg/injection, schedule: Q01DX009 (ip), vehicle: saline with Tween-80) 96 % of control; (dose: 400.0 mg/kg/injection, schedule: Q01DX009 (ip), vehicle: saline with Tween-80) 96 % of control.
For the compound `O=C1c2ccccc2C(=O)c2c(-c3ccccc3)ccc(-c3ccccc3)c21`, the T/C under setting [6] is 93 % of control, the T/C under setting [7] is 99 % of control and the T/C under setting [8] is 87 % of control.
Regarding `CC1CCC[N+](C)([B-](F)(F)F)C1` (stereo not drawn), the T/C is 100 % of control (dose: 50.0 mg/kg/injection, schedule: Q01DX005 (ip), vehicle: saline) and 100 % of control (dose: 100.0 mg/kg/injection, schedule: Q01DX005 (ip), vehicle: saline).
Turning to `Cc1ccc(S(=O)OC2CC(C)CCC2C(C)C)cc1` (stereo not drawn), the T/C is 100 % of control (dose: 50.0 mg/kg/injection, schedule: Q01DX009 (ip), vehicle: Klucel (hydroxypropylcellulose) (HPC)); 101 % of control (dose: 100.0 mg/kg/injection, schedule: Q01DX009 (ip), vehicle: Klucel (hydroxypropylcellulose) (HPC)); 100 % of control (dose: 200.0 mg/kg/injection, schedule: Q01DX009 (ip), vehicle: Klucel (hydroxypropylcellulose) (HPC)).
Turning to `CC1=C(O[Si](C)(C)C)CCC1=O`, the T/C reads like this: under setting [6], 113 % of control; under setting [7], 105 % of control; under setting [8], 106 % of control.
In the case of `CCCCCCCCCCCCCCCCCCOCC(CO)OC` (stereo not drawn), the T/C under setting [6] was 101 % of control and 115 % of control; the T/C under setting [7] was 115 % of control and 123 % of control; the T/C under setting [8] is 123 % of control; the T/C (dose: 400.0 mg/kg/injection, schedule: Q01DX005 (ip), vehicle: saline with Tween-80) is 97 % of control.
Consider `COC(=O)C1=NOC2C(=O)N(c3ccccc3)C(=O)C12` (stereo not drawn), for which the T/C is, setting by setting: under setting [6], 96 % of control; under setting [7], 101 % of control.
With `O=C1CSC(c2cccc(O)c2O)N1c1nncs1` (stereo not drawn), the T/C reads like this: (dose: 60.0 mg/kg/injection, schedule: Q01DX005 (ip), vehicle: saline with Tween-80) 111 % of control; (dose: 120.0 mg/kg/injection, schedule: Q01DX005 (ip), vehicle: saline with Tween-80) 96 % of control; (dose: 240.0 mg/kg/injection, schedule: Q01DX005 (ip), vehicle: saline with Tween-80) 96 % of control.
As for `COc1cc(OC)c(NC(=O)C2=C(C)NC(C)=C(C(=O)Nc3cc(Cl)c(OC)cc3OC)C2c2cccc([N+](=O)[O-])c2)cc1Cl`, the T/C (dose: 15.0 mg/kg/injection, schedule: Q01DX005 (ip), vehicle: Klucel (hydroxypropylcellulose) (HPC)) was 101 % of control; the T/C (dose: 30.0 mg/kg/injection, schedule: Q01DX005 (ip), vehicle: Klucel (hydroxypropylcellulose) (HPC)) is 100 % of control; the T/C (dose: 60.0 mg/kg/injection, schedule: Q01DX005 (ip), vehicle: Klucel (hydroxypropylcellulose) (HPC)) was 101 % of control and 93 % of control.
For `CC1(C)COSOC1`, the T/C reads like this: (dose: 100.0 mg/kg/injection, schedule: Q01DX001 (ip), vehicle: Klucel (hydroxypropylcellulose) (HPC)) 98 % of control; (dose: 200.0 mg/kg/injection, schedule: Q01DX001 (ip), vehicle: Klucel (hydroxypropylcellulose) (HPC)) 104 % of control; (dose: 400.0 mg/kg/injection, schedule: Q01DX001 (ip), vehicle: Klucel (hydroxypropylcellulose) (HPC)) 104 % of control.
Take `CCN(CC)SC(=S)SN(CC)CC`: the T/C (dose: 50.0 mg/kg/injection, schedule: Q04DX003 (ip), vehicle: saline) is 98 % of control; the T/C (dose: 100.0 mg/kg/injection, schedule: Q04DX003 (ip), vehicle: saline) was 96 % of control; the T/C (dose: 200.0 mg/kg/injection, schedule: Q04DX003 (ip), vehicle: saline) is 98 % of control; the T/C (dose: 400.0 mg/kg/injection, schedule: Q04DX003 (ip), vehicle: saline) was 104 % of control.
With `O=c1oc2ccccc2c(O)c1C(c1ccc(Cl)cc1)c1c(O)c2ccccc2oc1=O`, the T/C (dose: 15.0 mg/kg/injection, schedule: Q01DX005 (ip), vehicle: saline with Tween-80) was 94 % of control and the T/C (dose: 30.0 mg/kg/injection, schedule: Q01DX005 (ip), vehicle: saline with Tween-80) was 93 % of control.
On to `Cn1c(=O)oc2cc(NC(N)=O)c(Cl)cc21`, for which the T/C was 94 % of control under setting [3], 90 % of control under setting [4] and 86 % of control under setting [5].
`O=c1cccc[nH]1`: the T/C is 104 % of control and 112 % of control and 121 % of control (dose: 50.0 mg/kg/injection, schedule: Q01DX009 (ip), vehicle: saline); 107 % of control and 109 % of control and 110 % of control (dose: 100.0 mg/kg/injection, schedule: Q01DX009 (ip), vehicle: saline); 104 % of control and 105 % of control and 118 % of control (dose: 200.0 mg/kg/injection, schedule: Q01DX009 (ip), vehicle: saline); 108 % of control and 96 % of control (dose: 400.0 mg/kg/injection, schedule: Q01DX009 (ip), vehicle: saline); 121 % of control (dose: 600.0 mg/kg/injection, schedule: Q01DX009 (ip), vehicle: saline).
Consider `O=C1c2c(O)cccc2-c2nn(CCNCCO)c3ccc(NCCNCCO)c1c23`, for which the T/C was 171 % of control (dose: 3.12 mg/kg/injection, schedule: Q04DX002 (ip), vehicle: water); 183 % of control (dose: 6.25 mg/kg/injection, schedule: Q04DX002 (ip), vehicle: water); 228 % of control and 235 % of control (dose: 12.5 mg/kg/injection, schedule: Q04DX002 (ip), vehicle: water); 184 % of control and 285 % of control and 588 % of control (dose: 25.0 mg/kg/injection, schedule: Q04DX002 (ip), vehicle: water); 88 % of control (dose: 50.0 mg/kg/injection, schedule: Q04DX002 (ip), vehicle: water); 190 % of control (dose: 100.0 mg/kg/injection, schedule: Q04DX002 (ip), vehicle: water).
As for `C[C@H](N)C(=O)/C=C/c1ccccc1`, the T/C reads like this: (dose: 10.0 mg/kg/injection, schedule: Q01DX005 (ip), vehicle: saline) 101 % of control; (dose: 20.0 mg/kg/injection, schedule: Q01DX005 (ip), vehicle: saline) 100 % of control; (dose: 40.0 mg/kg/injection, schedule: Q01DX005 (ip), vehicle: saline) 98 % of control.
